{"source": "patent US20230277554A1", "about": "“COMPOSITION CONTAINING NICKEL-SUPEROXIDE DISMUTASE AND THE LIKE USEFUL FOR HAIRCARE” (priority 2020, published 2023)", "system": "Cutibacterium acnes", "test": "Cutibacterium acnes growth inhibition", "format": "cell-based", "description": "Cutibacterium acnes is a troublesome anaerobic pathogen. TUN-828® has the function of forming oxygen internally, so we tried to explore whether such a mechanism can inhibit the growth of Cutibacterium acnes and thereby promote the formation of Staphylococcus epidermidis thus form a micro-ecological environment beneficial to the scalp. […] In 24 hours, TUN-828® can inhibit more than 93% Cutibacterium acnes and more than 99% in 48 hr.", "data": [{"substance": "Nickel Bis (Hydroxy Diphenyl MethyIPyrrolidino Methy) Pyridinediy1 t-Butylisocyano Perchlorate [TUN-828®]", "values": [{"measurement": "inhibition of Cutibacterium acnes", "setting": "24 hours", "value": "more than 93%"}, {"measurement": "inhibition of Cutibacterium acnes", "setting": "48 hr", "value": "more than 99%"}]}]}
